Values quoted from earlier work, collected in PubChem BioAssay AID1259409 (Chemical Carcinogenesis Research Information System (CCRIS), 2018).

System: rodent chemically induced tumor inhibition, incidence and multiplicity
Assay: CCRIS tumor inhibitor studies
Details: for tumour outcome (control, treated, inhibition, significance): Promoter: NONE USED

## O=[Se](O)O
Carcinogen: N,N-DIETHYLNITROSAMINE, 55-18-5, Dose [Inhibitor]: 0.1 MG 5/WK STARTING 10-15 D BEFORE CARCINOGEN TREATMENT AND CONTINUING FOR DURATION OF STUDY (STUDY DURATION: 26 WK), Route [Inhibitor]: INTRAPERITONEAL, Species: RAT, Strain/Sex: BDIV AND WISTAR/MALE, Target Tissue: Type of Lesion: LIVER: TUMOR, Dose [Carcinogen]: 100 MG/L IN DRINKING WATER DAILY FOR 5 MO
  tumour outcome (control, treated, inhibition, significance): 18/19 (95%), 14/17 (82%), 14%, not calculated
Carcinogen: N,N-DIETHYLNITROSAMINE, 55-18-5, Dose [Inhibitor]: 1 MG/L IN DRINKING WATER DAILY STARTING 10-15 D BEFORE CARCINOGEN TREATMENT AND CONTINUING FOR DURATION OF STUDY (STUDY, Route [Inhibitor]: ORAL, Species: RAT, Strain/Sex: BDIV AND WISTAR/MALE, Target Tissue: Type of Lesion: LIVER: TUMOR, Dose [Carcinogen]: 80 MG/KG BW IN 0.2 ML 0.9% SALINE 1/WK FOR 10 WK
  tumour outcome (control, treated, inhibition, significance): 17/20 (85%), 15/20 (75%), 12%, not calculated
Carcinogen: N,N-DIETHYLNITROSAMINE, 55-18-5, Dose [Inhibitor]: 5 MG/L IN DRINKING WATER DAILY STARTING 10-15 D BEFORE CARCINOGEN TREATMENT AND CONTINUING FOR DURATION OF STUDY (STUDY, Route [Inhibitor]: ORAL, Species: RAT, Strain/Sex: BDIV AND WISTAR/MALE, Target Tissue: Type of Lesion: LIVER: TUMOR, Dose [Carcinogen]: 80 MG/KG BW IN 0.2 ML 0.9% SALINE 1/WK FOR 10 WK
  tumour outcome (control, treated, inhibition, significance): 15/16 (94%), 17/18 (94%), 0%, not calculated
Carcinogen: N,N-DIETHYLNITROSAMINE, 55-18-5, Dose [Inhibitor]: 10 MG/L IN DRINKING WATER DAILY STARTING 10-15 D BEFORE CARCINOGEN TREATMENT AND CONTINUING FOR DURATION OF STUDY (STUDY, Route [Inhibitor]: ORAL, Species: RAT, Strain/Sex: BDIV AND WISTAR/MALE, Target Tissue: Type of Lesion: LIVER: TUMOR, Dose [Carcinogen]: 80 MG/KG BW IN 0.2 ML 0.9% SALINE 1/WK FOR 10 WK
  tumour outcome (control, treated, inhibition, significance): 15/16 (94%), 9/13 (69%), 27%, not calculated
Carcinogen: N,N-DIETHYLNITROSAMINE, 55-18-5, Dose [Inhibitor]: 10 MG/L IN DRINKING WATER DAILY STARTING 10-15 D BEFORE CARCINOGEN TREATMENT AND CONTINUING FOR DURATION OF STUDY (STUDY, Route [Inhibitor]: ORAL, Species: RAT, Strain/Sex: BDIV AND WISTAR/MALE, Target Tissue: Type of Lesion: LIVER: TUMOR, Dose [Carcinogen]: 100 MG/L IN DRINKING WATER DAILY FOR 5 MO
  tumour outcome (control, treated, inhibition, significance): 18/19 (95%), 15/16 (94%), 1%, not calculated
Carcinogen: N-METHYL-N'-NITRO-N-NITROSOGUANIDINE, 70-25-7, Dose [Inhibitor]: 10 MG/L IN DRINKING WATER DAILY STARTING 15 D BEFORE CARCINOGEN TREATMENT AND CONTINUING FOR DURATION OF STUDY (STUDY DU, Route [Inhibitor]: ORAL, Species: RAT, Strain/Sex: BDIV AND WISTAR/MALE, Target Tissue: Type of Lesion: STOMACH: TUMORS, Dose [Carcinogen]: 250 MG/KG BW PULSED DOSE IN 2 ML CORN OIL ONCE
  tumour outcome (control, treated, inhibition, significance): 18/25 (72%), 12/35 (75%), -4%, not calculated
Carcinogen: N-METHYL-N-NITRO-N'-NITROSO-GUANIDINE [70-25-7], Dose [Inhibitor]: 0, 2, 4 MG/L FOR 1 WK PRIOR TO CARCINOGEN (STUDY DURATION: 43 WKS), Dose [Inhibitor]: 0, 2, 4 MG/L FOR 1 WK PRIOR TO CARCINOGEN (STUDY DURATION: 43 WKS), Route [Inhibitor]: DRINKING WATER, Species: RAT, Strain/Sex: WISTAR/MALE, Target Tissue: Type of Lesion: LEIOMYOMA, Dose [Carcinogen]: 20 MG/KG BW DAILY FOR 10 D
  outcome: 23%; 47%, -104%; 43%, -87%
Carcinogen: N-METHYL-N-NITROSOUREA, 684-9-35, Dose [Inhibitor]: 4 PPM IN DRINKING WATER DAILY FOR 10 MO STARTING SIMULTANEOUSLY WITH CARCINOGEN TREATMENT (STUDY DURATION: 10 MO), Route [Inhibitor]: ORAL, Species: RAT, Strain/Sex: WE/MALE, Target Tissue: Type of Lesion: BRAIN AND SPINAL CORD: NEOPLASM, Dose [Carcinogen]: 20 MG/KG BW ONCE EVERY 4 WK FOR 40 WK
  tumour outcome (control, treated, inhibition, significance): 6/15 (40%), 9/16 (56%), -40%, not significant
Carcinogen: N-METHYL-N-NITROSOUREA, 684-9-35, Dose [Inhibitor]: 4 PPM IN DRINKING WATER DAILY FOR 10 MO STARTING SIMULTANEOUSLY WITH CARCINOGEN TREATMENT (STUDY DURATION: 10 MO), Route [Inhibitor]: ORAL, Species: RAT, Strain/Sex: WE/MALE, Target Tissue: Type of Lesion: FORESTOMACH: NEOPLASM, Dose [Carcinogen]: 20 MG/KG BW ONCE EVERY 4 WK FOR 40 WK
  tumour outcome (control, treated, inhibition, significance): 14/15 (93%), 16/16 (100%), -8%, not significant
Carcinogen: N-METHYL-N-NITROSOUREA, 684-9-35, Dose [Inhibitor]: 4 PPM IN DRINKING WATER DAILY FOR 10 MO STARTING SIMULTANEOUSLY WITH CARCINOGEN TREATMENT (STUDY DURATION: 10 MO), Route [Inhibitor]: ORAL, Species: RAT, Strain/Sex: WE/MALE, Target Tissue: Type of Lesion: MAMMARY GLAND: NEOPLASM, Dose [Carcinogen]: 20 MG/KG BW ONCE EVERY 4 WK FOR 40 WK
  tumour outcome (control, treated, inhibition, significance): 3/15 (20%), 4/16 (25%), -25%, not significant
Carcinogen: N-METHYL-N-NITROSOUREA, 684-9-35, Dose [Inhibitor]: 4 PPM IN DRINKING WATER DAILY FOR 10 MO STARTING SIMULTANEOUSLY WITH CARCINOGEN TREATMENT (STUDY DURATION: 10 MO), Route [Inhibitor]: ORAL, Species: RAT, Strain/Sex: WE/MALE, Target Tissue: Type of Lesion: PERIPHERAL NERVES: NEOPLASM, Dose [Carcinogen]: 20 MG/KG BW ONCE EVERY 4 WK FOR 40 WK
  tumour outcome (control, treated, inhibition, significance): 3/15 (20%), 8/16 (50%), -150%, not significant
Carcinogen: N-METHYL-N-NITROSOUREA, 684-93-5, Dose [Inhibitor]: 1 MG IN DIET DAILY STARTING AT AGE 5 WK 2 WK PRIOR TO FIRST CARCINOGEN TREATMENT AND CONTINUING FOR DURATION OF STUDY (S, Route [Inhibitor]: ORAL, Species: HAMSTER, Strain/Sex: SYRIAN/MALE, Target Tissue: Type of Lesion: TRACHEA: CARCINOMA, Dose [Carcinogen]: 0.5% SOLUTION (PH 5) 1/WK FOR 12 WK
  tumour outcome (control, treated, inhibition, significance): 9/34 (26%), 8/33 (24%), 8%, not significant
Carcinogen: N-METHYL-N-NITROSOUREA, 684-93-5, Dose [Inhibitor]: 1 MG IN DIET DAILY STARTING AT AGE 5 WK 2 WK PRIOR TO FIRST CARCINOGEN TREATMENT AND CONTINUING FOR DURATION OF STUDY (S, Route [Inhibitor]: ORAL, Species: HAMSTER, Strain/Sex: SYRIAN/MALE, Target Tissue: Type of Lesion: TRACHEA: NEOPLASM, Dose [Carcinogen]: 0.5% SOLUTION (PH 5) 1/WK FOR 12 WK
  tumour outcome (control, treated, inhibition, significance): 11/34 (32%), 9/33 (27%), 16%, not significant
Carcinogen: N-METHYL-N-NITROSOUREA, 684-93-5, Dose [Inhibitor]: 1 MG/KG IN DIET DAILY STARTING 7 D AFTER CARCINOGEN TREATMENT AND CONTINUING FORDURATION OF STUDY (STUDY DURATION: 120 D, Route [Inhibitor]: ORAL, Species: RAT, Strain/Sex: SPRAGUE-DAWLEY/FEMALE, Target Tissue: Type of Lesion: MAMMARY GLAND: ADENOCARCINOMA, Dose [Carcinogen]: 35 MG/KG BW IN 0.9% SALINE ONCE AT 50 D OF AGE
  tumour outcome (control, treated, inhibition, significance): 68%, 68%, 0%, not calculated
Carcinogen: N-METHYL-N-NITROSOUREA, 684-93-5, Dose [Inhibitor]: 5 MG IN DIET DAILY STARTING AT AGE 5 WK 2 WK PRIOR TO FIRST CARCINOGEN TREATMENT AND CONTINUING FOR DURATION OF STUDY (S, Route [Inhibitor]: ORAL, Species: HAMSTER, Strain/Sex: SYRIAN/MALE, Target Tissue: Type of Lesion: TRACHEA: CARCINOMA, Dose [Carcinogen]: 0.5% SOLUTION (PH 5) 1/WK FOR 12 WK
  tumour outcome (control, treated, inhibition, significance): 9/34 (26%), 10/31 (32%), -23%, not significant
